Assay results as given in patent publication US20110152267A1, “Compositions and Methods for Treating Hyperproliferative Disorders” (Texas Tech University System, priority 2009, published 2011).

Assays:
Assay type in all cases: cell-based, human
[1] = system: LNCaP prostate adenocarcinoma cell line; test: DIMSCAN cytotoxicity, fenretinide + L-threo-sphinganines 3:1 (Example B16); settings: LNCaP.FGC
Method: (§1) Cytotoxicity Assay—Once again, cytotoxicity is determined using the DIMSCAN assay system (R. Proffitt et al., Cytometry 24, 204-213 (1996); T. Frgala et al., Mol Cancer Ther. 6:886-97, 2007). The system employs digital imaging microscopy to quantify viable cells, which selectively accumulate fluorescein diacetate to become brightly fluorescent. The system is capable of measuring cytotoxicity over a 4-5 log dynamic range by quenching the residual fluorescence of dead and dying cells with eosin Y and quantifying the total fluorescence of viable cells using digital thresholding. Measured fluorescence is directly proportionate to the number of viable cells. A comparison of the total fluorescence of a drug-treated cell population to the fluorescence of a similar number of untreated cells yields a survival fraction. In brief, 2000 to 10,000 cells/well (depending on size and growth rates) are replicate plated into 60 wells of a 96-well tissue culture plate in 0.1 mL of whole medium and allowed to attach overnight. Drug(s) are then added in 0.05 mL of whole medium to the final concentrations indicated. Drugs (fenretinide, and various chain length L-threo-sphinganines) were tested both as single agents and in a 3:1 ratio of fenretinide:sphinganine. C18-L-threo-sphinganine, or “safingol,” was also tested and results shown for reference. There are 12 wells treated per drug concentration. Twelve wells receive drug vehicle-only to the appropriate final concentration and serve as controls for the plate. Cells are incubated for 96 hours at 37° C. in ambient air with 5% CO2. Fluorescein diacetate is then added to each well in 0.05 mL media to a final concentration of 8 microgram/mL. Cells are incubated for a further 15 minutes at 37° C. and 0.03 mL of 0.5% eosin Y is added to each well. Total fluorescence of viable cells is then measured by digital imaging microscopy. Results were graphed as the ratio of the fluoresecence of drug-treated wells to non-drug treated control wells (i.e., Survival Fraction). All tests were performed at least twice. Representative results are shown.
(§2) The Combination Index (CI) is a term to describe mathematical modeling of the pharmacologic effects on cytotoxicity (cell death) of two drugs in combination based. Cytotoxic “synergy” is defined as a cell death affect which is greater than would be expected from a simple product of the single agent cytotoxicities alone (i.e. an “additive” effect). By Chou-Talalay analysis, a CI<0.9 on a Fraction Affected (“Fa”, i.e. fraction of cells killed) indicates synergy, with smaller numbers indicating greater synergy; a CI of 0.9-1.1 signifies an additive or near-additive effect; and a CI>1.1 means the drug combination is antagonistic.
Fenretinide and L-threo-sphinganines tested in human prostate adenocarcinoma (prostate cancer) cell line, LNCaP.

[2] = system: MOLT-4 ALL leukemia cell line; test: DIMSCAN cytotoxicity dose-response with fenretinide, with or without D-threo-PPMP (Examples A, FIGS. 6, 24-26); settings: +96 hrs; for C.I. of D-threo-PPMP with fenretinide+L-threo-sphinganine (three drug combination): 2% oxygen, D-threo-PPMP fixed 10 uM, at most doses
Method: (§3) Cytotoxicity Assay: Cytotoxicity in cell lines was determined using a fluorescence-based assay employing digital imaging microscopy (DIMSCAN)(after Fragala, et al, Mol Cancer Ther, 6:886-897, 2007). DIMSCAN quantitates viable cells which selectively accumulate fluorescein diacetate and is capable of measuring cytotoxicity over a 4-5 log dynamic range by quantifying total fluorescence per well (which is proportional to viable, clonogenic cells) after eliminating background fluorescence using digital thresholding and eosin Y quenching. Briefly, cell lines were seeded into 96-well plates in 100 µL of complete culture medium (10-20% serum) per well. Cells were incubated overnight in 2%, 5% or 20% oxygen (room air) prior to addition of drugs in […] volumes of complete medium to various final drug concentrations in replicates of 12 wells per concentration. In assays employing D-threo-PPMP, PPMP was employed at a fixed, minimally-toxic, final concentration of 10 μM in each well. Control wells received ethanol (final concentration=0.12%-0.20%) in complete medium equivalent to the maximum final ethanol concentration of drug-treated wells. Plates were incubated at various oxygen concentrations to simulate physiological hypoxia (i.e., 2% oxygen=typical solid tumor oxygen levels; 5%=bone marrow oxygen levels for leukemias; 20% room air=supraphysiological oxygen for comparison with typical laboratory culture conditions). Plates were assayed at 3-4 days after initiating drug exposure depending on the growth properties of each cell line, to allow for maximum cell death and outgrowth of surviving cells. To measure cytotoxicity, FDA (stock solution of 1 mg/ml in DMSO) was added, in 50 µL of complete medium per well, to a final concentration of 10 µg/ml. The plates were incubated for an additional 15-30 minutes at 37 C and then 30 µL of eosin Y (0.5% in normal saline) was added per well. Total fluorescence of each well was then measured using digital imaging microscopy.
(§4) FIGS. 1 to 26 illustrate the effect (Examples A1 through A26) of the claimed invention and were carried out using the procedures disclosed herein.

[3] = system: drug-resistant CHLA-90 neuroblastoma cancer cell line; test: DIMSCAN cytotoxicity dose-response with fenretinide (Examples A, FIGS. 1, 7, 12); settings: at one or more doses, +96 hrs
Method: as §3, with “microscopy. […]” for “microscopy.”

[4] = system: COG-LL-317 acute lymphoblastic leukemia cell line; test: DIMSCAN cytotoxicity, fenretinide + L-threo-sphinganines 3:1 (Example B20)
Method: as §1, §2
(§5) Fenretinide and L-threo-sphinganines tested in human acute lymphoblastic leukemia (pediatric ALL, a blood cancer) cell lines, COG-LL-317 and MOLT-4.

[5] = system: MOLT-4 acute lymphoblastic leukemia cell line; test: as above
Method: as §1, §2, §5

[6] = system: MDA-MB-231 breast adenocarcinoma cell line; test: DIMSCAN cytotoxicity, fenretinide + L-threo-sphinganines 3:1 (Example B14); settings: MDA-MB-231, 20% O2, 96 h
Method: as §1, §2
Fenretinide and L-threo-sphinganines tested in human breast adenocarcinoma (breast cancer) cell lines, MCF-7 and MDA-MB-231.

[7] = system: GBM2 glioblastoma brain cancer cell line; test: DIMSCAN cytotoxicity dose-response with fenretinide, with or without D-threo-PPMP (Examples A, FIGS. 3, 9, 14, 18-20); settings: +96 hrs; for C.I. of D-threo-PPMP with fenretinide+L-threo-sphinganine (three drug combination): 2% oxygen, D-threo-PPMP fixed 10 uM, at most doses; for C.I. (Combination Index) with fenretinide: at one or more doses
Method: as §3, §4

[8] = 4-HPR 1.5 μM + L-threo-sphinganine 0.5 μM
[9] = 4-HPR 3 μM + L-threo-sphinganine 1 μM
[10] = 4-HPR 6 μM + L-threo-sphinganine 2 μM
[11] = 4-HPR 9 μM + L-threo-sphinganine 3 μM
[12] = 4-HPR 12 μM + L-threo-sphinganine 4 μM

Compound	CI [1, 8]	Fa [1, 8]	CI [1, 9]	Fa [1, 9]	CI [1, 10]	Fa [1, 10]	CI [1, 11]	Fa [1, 11]	CI [4, 9]	Fa [4, 9]	CI [4, 10]	Fa [4, 10]	CI (Combination Index) [6, 8]	Fa (fraction affected) [6, 8]	CI (Combination Index) [6, 9]	Fa (fraction affected) [6, 9]	CI (Combination Index) [6, 10]	Fa (fraction affected) [6, 10]	CI (Combination Index) [6, 11]	Fa (fraction affected) [6, 11]	other results
CCCCCCCCCCCCCCCC[C@H](O)[C@@H](N)CO [C19, (2S,3S)-2-amino-1,3-nonadecanediol]	1.0	0.697	0.5	0.980	0.5	0.999	0.2	1.000	0.8	0.9980	0.4	0.9999	1.2	0.078	1.2	0.195	1.1	0.503	0.7	0.909	C.I. of D-threo-PPMP with fenretinide+L-threo-sphinganine (three drug combination) [2]: < 1; C.I. (Combination Index) with fenretinide [3]: < 1; Fa [4, 11]: 1.0000; Fa [4, 12]: 1.0000; CI [5, 9]: 1.0; Fa [5, 9]: 0.797; CI [5, 10]: 0.8; Fa [5, 10]: 0.996; CI [5, 11]: 0.8; Fa [5, 11]: 0.999; Fa [5, 12]: 1; C.I. of D-threo-PPMP with fenretinide+L-threo-sphinganine (three drug combination) [7]: < 1; C.I. (Combination Index) with fenretinide [7]: < 1
CCCCCCCCCCCCCCCCC[C@H](O)[C@@H](N)CO [C20, (2S,3S)-2-amino-1,3-icosanediol]	0.7	0.812	0.4	0.987	0.7	0.993	0.8	0.999	0.2	0.9999	0.3	1	2.0	0.011	1.1	0.190	1.3	0.583	1.8	0.664	C.I. of D-threo-PPMP with fenretinide+L-threo-sphinganine (three drug combination) [2]: < 1; C.I. (Combination Index) with fenretinide [3]: < 1; Fa [4, 11]: 1; Fa [4, 12]: 1; CI [5, 9]: 0.9; Fa [5, 9]: 0.878; CI [5, 10]: 0.8; Fa [5, 10]: 0.996; CI [5, 11]: 0.8; Fa [5, 11]: 0.999; Fa [5, 12]: 1; C.I. of D-threo-PPMP with fenretinide+L-threo-sphinganine (three drug combination) [7]: < 1; C.I. (Combination Index) with fenretinide [7]: < 1
CCCCCCCCCCCCCCC[C@H](O)[C@@H](N)CO [C18, (2S,3S)-2-amino-1,3-octadecanediol, reference compound]	0.9	0.752	0.3	0.971	0.1	0.998	0.1	0.999	0.8	0.998	0.6	0.9994	1.8	0.088	1.8	0.207	1.3	0.597	0.7	0.922	CI [4, 11]: 0.8; Fa [4, 11]: 0.9996; Fa [4, 12]: 1; CI [5, 9]: 0.9; Fa [5, 9]: 0.829; CI [5, 10]: 0.7; Fa [5, 10]: 0.998; CI [5, 11]: 0.8; Fa [5, 11]: 0.999; Fa [5, 12]: 1
CCCCCCCCC[C@H](O)[C@@H](N)CO [C12]	0.5	0.870	0.3	0.982	0.4	0.996	0.4	0.999	–	–	–	–	1.5	1E−07	0.9	0.052	1.6	0.272	2.0	0.720	–
CCCCCCCCCCCCCC[C@H](O)[C@@H](N)CO [C17, (2S,3S)-2-amino-1,3-heptadecanediol]	0.3	0.887	0.3	0.967	0.2	0.991	0.1	0.999	0.8	0.993	1.3	0.9993	1.3	0.127	0.9	0.265	0.8	0.610	0.7	0.948	C.I. of D-threo-PPMP with fenretinide+L-threo-sphinganine (three drug combination) [2]: < 1; C.I. (Combination Index) with fenretinide ([2]; at one or more doses): < 1; C.I. (Combination Index) with fenretinide [3]: < 1; CI [4, 11]: 0.5; Fa [4, 11]: 0.9999; Fa [4, 12]: 1; CI [5, 9]: 1.0; Fa [5, 9]: 0.807; CI [5, 10]: 0.7; Fa [5, 10]: 0.998; CI [5, 11]: 0.8; Fa [5, 11]: 0.999; Fa [5, 12]: 1; C.I. of D-threo-PPMP with fenretinide+L-threo-sphinganine (three drug combination) [7]: < 1; C.I. (Combination Index) with fenretinide [7]: < 1
